How the values were obtained:
[1] = system: Respiratory Syncytial Virus; assay: In vitro screening for activity against Respiratory Syncytial Virus (tetrazolium-based colorimetric assay, HeLa cells); assay type: cell-based; details: human respiratory syncytial virus, 168 h; protection against cytopathology caused by RSV in HeLa cells, MTT readout seven days after infection
From the text: The percent protection against cytopathology caused by viruses (antiviral activity or EC50) achieved by tested compounds and their cytotoxicity (CC50) are both calculated from dose-response curves. The selectivity of the antiviral effect is represented by the selectivity index (SI), calculated by dividing the CC50 (cytotoxic dose for 50% of the cells) by the EC50 (antiviral activity for 50% of the cells).
Automated tetrazolium-based colorimetric assays were used for determination of EC50 and CC50 of test compounds. Flat-bottom, 96-well plastic microtiter trays were filled with 180 μl of Eagle's Basal Medium, supplemented with 5% FCS (0% for FLU) and 20 mM Hepes buffer. Subsequently, stock solutions (7.8× final test concentration) of compounds were added in 45 μl volumes to a series of triplicate wells so as to allow simultaneous evaluation of their effects on virus- and mock-infected cells. Five five-fold dilutions were made directly in the microtiter trays using a robot system. Untreated virus controls, and HeLa cell controls were included in each test. Approximately 100 TCID50 of Respiratory Syncytial Virus was added to two of the three rows in a volume of 50 μl. The same volume of medium was added to the third row to measure the cytotoxicity of the compounds at the same concentrations as those used to measure the antiviral activity. After two hours of incubation, a suspension (4×10^5 cells/ml) of HeLa cells was added to all wells in a volume of 50 μl. The cultures were incubated at 37° C. in a 5% CO2 atmosphere. Seven days after infection the cytotoxicity and the antiviral activity was examined spectrophotometrically. To each well of the microtiter tray, 25 μl of a solution of MTT (3-(4,5-dimethylthiazol-2-yl)-2,5-diphenyltetrazolium bromide) was added. The trays were further incubated at 37° C. for 2 hours, after which the medium was removed from each cup. Solubilization of the formazan crystals was achieved by adding 100 μl 2-propanol. Complete dissolution of the formazan crystals were obtained after the trays have been placed on a plate shaker for 10 min. Finally, the absorbances were read in an eight-channel computer-controlled photometer (Multiskan MCC, Flow Laboratories) at two wavelengths (540 and 690 nm). The absorbance measured at 690 nm was automatically subtracted from the absorbance at 540 nm, so as to eliminate the effects of non-specific absorption.

Row | Compound | EC50 [1] | melting point
1 | Cc1ccc(O)c(Cn2c(NCCCN3CCOCC3)nc3ccc(CNc4cccnc4CCO)cc32)n1 [c-3] | 31.6 nM | –
2 | OCCc1ncccc1NCc1ccc2nc(NCCCN3CCOCC3)n(Cc3ncccc3O)c2c1 [e-1] | 200 nM | –
3 | OCCc1ccncc1NCc1ccc2nc(NCCCN3CCOCC3)n(Cc3ncccc3O)c2c1 [h-3] | 447 nM | 142 °C
4 | Cc1ccc(O)c(Cn2c(NCCCN3CCOCC3)nc3ccc(CNc4cnccc4CCO)cc32)n1 [g-3] | 50.1 nM | 207 °C

From patent publication US8178694B2, “Heterocyclylaminoalkyl substituted benzimidazoles” (Tibotec Pharmaceuticals Ltd., priority 2005, dated 2012)
